Reference: patent US20230303494A1, “BENZYLAMINE DERIVATIVE, PREPARATION METHOD THEREFOR AND USE THEREOF” (ACADEMY OF MILITARY MEDICAL SCIENCES, priority 2020, published 2023)

Key:
[1] = target: PD-1/PD-L1 interaction (Homo sapiens (Human), UniProt Q9NZQ7); assay: PD-1/PD-L1 Binding Assay kit (Cisbio), HTRF; conditions: 8-10 concentrations, read-out: IC50 of inhibition of PD-1/PD-L1 interaction
[2] = target: human PD-L1 (Homo sapiens (Human), UniProt Q9NZQ7); assay: Biofilm interferometry (BLI, OctetRED) binding to human PD-L1/AVI; conditions: 1:1 binding model; for koff: read-out: Kdis
Experimental: In the experiment, the instrument OctectRED of Fortebio Company based on biofilm interferometry (BLI) technology was used to capture human PD-L1/AVI with SA chips. The concentration of antigen PD-L1/AVI was diluted to 10 μg/mL with running buffer (PBS+0.02% Tween-20+2% DMSO), and the loading time was 300 s; similarly, the analyte was also diluted to the corresponding concentrations (20 nM, 10 nM, 5 nM, 2.5 nM, 1.25 nM, 0.625 nM, 0.3125 nM) with running buffer in gradient manner, and a buffer blank control group was set at the same time. The binding time of human PD-L1/AVI to the analyte was 180 s, and the dissociation time was 300 s; the chip was regenerated with 10 mM glycine HCl, pH 1.7 solution and repeated 5-second pulse for 3 times. The data were fitted to a 1:1 binding model to determine the equilibrium dissociation constant KD.

[3] = test system: PBMCs cells; assay: Cytotoxicity, Cell Titer-Glo, PBMCs cells; assay type: cell-based; conditions: Homo sapiens, PBMC; 24 hours incubation; read-out: PBMCs cells IC50 (cell death)
Experimental: (§1) The raji (ATCC), raw (ATCC) and PBMCs cells were suspended in buffer (RPMI 1640 complete medium containing 10% FBS, SIGMA), respectively, and the cell density was counted. The cells were transferred to wells of a 96-well plate, ensuring that the cell density of each well was 1×10^4 cells/well, and incubated for 24 hours at 37° C., 5% CO2 with compounds at different concentrations (100 μM, 50 μM, 25 μM, 12.5 μM, 6.25 μM and 3.125 μM) and buffer control solution (0.2% DMSO). To each well, 100 μL of Cell Titer-Glo Luminescent Solution (Promega) was added and shaken for 10 minutes at room temperature, and then GloMax® Navigator System was used to measure the system […], and the cell death rate was calculated. Cell death rate (%)=(1−RLUcompound/RLUcontrol)×100%, and IC50 was determined from the inhibition curve.

[4] = test system: Raji cells; assay: Cytotoxicity, Cell Titer-Glo, Raji cells; assay type: cell-based; conditions: Homo sapiens, 24 hours incubation, read-out: Raji cells IC50 (cell death)
Experimental: as §1

[5] = test system: Raw cells; assay: Cytotoxicity, Cell Titer-Glo, Raw cells; assay type: cell-based; conditions: 24 hours incubation; read-out: Raw cells IC50 (cell death)
Experimental: as §1

[6] = test system: Human peripheral blood mononuclear cells (PBMCs); assay: Promotion of IFN-γ secretion in PBMCs treated with anti-CD3/anti-CD28 and PDL1/FC fusion protein (ELISA); assay type: cell-based; conditions: for IFN-γ / Increase rate of IFN-γ expression vs PDL1 treatment: hPD-L1 10.0 μg/mL, 72 h
Experimental: Human peripheral blood mononuclear cells (PBMCs) were isolated from 10-15 ml of whole blood of healthy volunteers using experimental human lymphocyte separation medium (TBD sciences). The cells were washed twice with normal saline and resuspended in buffer (RPMI 1640 complete medium containing 10% FBS, SIGMA) to count the cell density. The PBMCs were dispersed and placed in a 96-well plate, 1×10^5 cells and 50 μL of buffer per well. Anti-CD3 antibody (SIGMA) and anti-CD28 antibody (SIGMA) were mixed at a ratio of 1:1 to obtain an antibody mixture. The antibody mixture was added to the wells to ensure that the final concentration of antibody was 0.8 μg/mL. At the same time, PDL1/FC fusion protein (SINO BIOLOGICAL) was added to reach a final concentration of 10.0 μg/mL, and the compound to be tested was diluted with buffer and added to the wells to reach a final concentration of 0.1 μM or 1 μM. The mixed system was incubated at 37° C. and 5% CO2 for 72 h. The supernatant was collected, and the expression level of IFN-γ was measured by ELISA MAXTM Human IFN-γ Standard Kit (BioLegend), and the increase rate was calculated. Increase rate (%)=(expression amount of compound treatment−expression amount of PDL1 treatment)/expression amount of PDL1 treatment×100%

Chain of PD-1/PD-L1 interaction (Q9NZQ7 19-238): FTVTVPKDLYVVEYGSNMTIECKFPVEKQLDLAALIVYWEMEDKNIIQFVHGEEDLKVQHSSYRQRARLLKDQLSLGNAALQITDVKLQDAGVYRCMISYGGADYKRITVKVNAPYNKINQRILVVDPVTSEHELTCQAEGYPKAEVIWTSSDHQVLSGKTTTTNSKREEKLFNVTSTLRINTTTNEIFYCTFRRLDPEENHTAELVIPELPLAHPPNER
Chain of human PD-L1 (Q9NZQ7 19-290): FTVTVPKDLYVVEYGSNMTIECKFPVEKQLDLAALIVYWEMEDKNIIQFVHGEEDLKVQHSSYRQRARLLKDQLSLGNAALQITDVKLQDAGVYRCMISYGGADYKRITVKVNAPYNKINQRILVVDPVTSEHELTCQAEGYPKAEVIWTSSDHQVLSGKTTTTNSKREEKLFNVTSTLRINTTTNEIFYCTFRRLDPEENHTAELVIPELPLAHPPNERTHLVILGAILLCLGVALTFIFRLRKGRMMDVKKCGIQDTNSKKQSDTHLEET

Compound	IC50 [1]	IC50 [3]	IC50 [4]	IC50 [5]	other results
Cc1cc(CN2C[C@@H](O)CC2=O)c(OCc2cncc(C#N)c2)cc1NCc1cccc(-c2ccccc2)c1C [Compound 23]	0.036 µM	–	–	–	–
N#Cc1cccc(COc2cc(NCc3cccc(-c4ccccc4)c3Br)ccc2CNC(CO)C(=O)O)c1 (centres unmarked) [Compound 33]	0.637 µM	–	–	–	–
Cc1cc(NCc2cccc(-c3ccccc3)c2C)cc(OCc2cncc(C#N)c2)c1CN[C@H](CO)C(=O)O [Compound 7]	0.363 µM	–	–	–	–
COc1cc(NCc2cccc(-c3ccccc3)c2C)c(Cl)cc1CN[C@H](CO)C(=O)O [Compound 11]	0.107 µM	–	–	–	Kd [2]: 0.000515 µM; kon [2]: 1.29e+06 M⁻¹ s⁻¹; koff [2]: 0.000664 s⁻¹
COc1nc(NCc2cccc(-c3ccccc3)c2C)ccc1CN[C@H](CO)C(=O)O [Compound 12]	4.54 µM	–	–	–	–
Cc1c(CN(C)c2ccc(CNCCO)c(OCc3cccc(C#N)c3)c2)cccc1-c1ccccc1 [Compound 27]	22.6 µM	> 100 µM	84.1 µM	> 100 µM	–
Cc1c(CNc2ccc(CNCCO)c(OCc3cccc(C#N)c3)c2)cccc1-c1ccccc1 [Compound 2]	3.67 µM	–	–	–	–
Cc1cc(CNC[C@@H](O)CC(=O)O)c(OCc2cncc(C#N)c2)cc1NCc1cccc(-c2ccccc2)c1C [Compound 22]	0.017 µM	–	–	–	–
Cc1cc(CN[C@H](CC(N)=O)C(=O)O)c(OCc2cncc(C#N)c2)cc1NCc1cccc(-c2ccccc2)c1C [Compound 25]	0.047 µM	–	–	–	–
CC(=O)NCCNCc1ccc(NCc2cccc(-c3ccccc3)c2C)cc1OCc1cccc(C#N)c1 [Compound 1]	4.94 µM	–	–	–	–
Cc1c(NCc2ccc(CN[C@H](CO)C(=O)O)c(OCc3cncc(C#N)c3)c2)cccc1-c1ccccc1 [Compound 28]	0.191 µM	–	–	–	–
N#Cc1cncc(COc2cc(NCc3cccc(-c4ccccc4)c3Br)ccc2CNC(CO)C(=O)O)c1 (centres unmarked) [Compound 31]	–	> 100 µM	> 100 µM	> 100 µM	–
Cc1cc(CN[C@H](CO)C(=O)O)c(OCc2cccnc2)cc1NCc1cccc(-c2ccccc2)c1C [Compound 17]	0.092 µM	> 100 µM	78.9 µM	61.6 µM	–
Cc1c(COc2ccc(CN[C@H](CO)C(=O)O)c(OCc3cncc(C#N)c3)c2)cccc1-c1ccccc1 [Compound 37, reference compound]	0.323 µM	–	–	–	–
Cc1c(CNc2ccc(CN[C@H](CO)C(=O)O)c(OCc3cccc(C#N)c3)c2)cccc1-c1ccc2c(c1)OCCO2 [Compound 34]	0.435 µM	> 100 µM	90.3 µM	> 100 µM	–
Cc1c(CNc2ccc(CN[C@H](CO)C(=O)O)c(OCc3cccc(C#N)c3)c2)cccc1-c1ccccc1 [Compound 4]	1.16 µM	> 100 µM	> 100 µM	> 100 µM	Kd [2]: 0.00181 µM; kon [2]: 651000 M⁻¹ s⁻¹; koff [2]: 0.00118 s⁻¹
Cc1c(CNc2ccc(CN[C@H](CO)C(=O)O)c(OCc3cncc(C#N)c3)c2)cccc1-c1ccccc1 [Compound 10]	0.038 µM	> 100 µM	> 100 µM	> 100 µM	Kd [2]: 0.000296 µM; kon [2]: 849000 M⁻¹ s⁻¹; koff [2]: 0.000251 s⁻¹; IFN-γ ([6]; compound 0.1 μM): 37700 pg/mL; Increase rate of IFN-γ expression vs PDL1 treatment ([6]; compound 0.1 μM): 77.0%; IFN-γ ([6]; compound 1.0 μM): 41500 pg/mL; Increase rate of IFN-γ expression vs PDL1 treatment ([6]; compound 1.0 μM): 94.8%; effect on promoting IFN-γ secretion at the cellular level ([6]; in words, better than that of BMS202): significant effect on promoting IFN-γ secretion
COc1nc(NCc2cccc(-c3ccccc3)c2C)ccc1CNCCNC(C)=O [Compound 9]	4.24 µM	–	–	–	–

Compound	IC50 [1]	IC50 [3]	IC50 [4]	IC50 [5]	other results
N#Cc1cncc(COc2cc(NCc3cccc(-c4ccccc4)c3C(F)(F)F)ccc2CN[C@H](CO)C(=O)O)c1 [Compound 30]	2.93 µM	–	–	–	–
COc1cc(NCc2cccc(-c3ccccc3)c2C)ncc1CN[C@H](CO)C(=O)O [Compound 15]	2.63 µM	–	–	–	–
Cc1cc(CN[C@H](CO)C(=O)O)c(OCc2cncc(C#N)c2)cc1NCc1cccc(-c2ccccc2)c1C(F)(F)F [Compound 29]	0.61 µM	–	–	–	–
Cc1c(C#N)cncc1COc1cc(OCc2cccc(-c3ccccc3)c2C)ccc1CN[C@H](CO)C(=O)O [Compound 38, reference compound]	1.04 µM	–	–	–	–
Cc1cc(CN2C[C@H](O)C[C@H]2C(=O)O)c(OCc2cncc(C#N)c2)cc1NCc1cccc(-c2ccccc2)c1C [Compound 21]	0.024 µM	75.5 µM	> 100 µM	88.2 µM	–
Cc1c(COc2ccc(CNC(CO)C(=O)O)c(OCc3cncc(C#N)c3)c2)cccc1-c1ccccc1 (centres unmarked) [Compound 37, reference compound]	–	16.8 µM	22.6 µM	31.2 µM	Kd [2]: 0.0675 µM; kon [2]: 12600 M⁻¹ s⁻¹; koff [2]: 0.000851 s⁻¹; IFN-γ ([6]; compound 0.1 μM): 23200 pg/mL; Increase rate of IFN-γ expression vs PDL1 treatment ([6]; compound 0.1 μM): 8.9%; IFN-γ ([6]; compound 1.0 μM): 25100 pg/mL; Increase rate of IFN-γ expression vs PDL1 treatment ([6]; compound 1.0 μM): 17.8%
COc1cc(NCc2cccc(-c3ccccc3)c2C)c(C)cc1CNC(CO)C(=O)O (centres unmarked) [Compound 14]	–	> 100 µM	> 100 µM	> 100 µM	–
Cc1cc(CN[C@H](CCO)C(=O)O)c(OCc2cncc(C#N)c2)cc1NCc1cccc(-c2ccccc2)c1C [Compound 24]	1.33 µM	–	–	–	–
CCOc1cc(NCc2cccc(-c3ccccc3)c2C)c(C)cc1CN[C@H](CO)C(=O)O [Compound 20]	0.347 µM	–	–	–	–
COc1nc(OCc2cccc(-c3ccccc3)c2C)ccc1CNCCNC(C)=O [BMS202]	–	–	–	–	IFN-γ ([6]; compound 0.1 μM): 35100 pg/mL; Increase rate of IFN-γ expression vs PDL1 treatment ([6]; compound 0.1 μM): 64.8%; IFN-γ ([6]; compound 1.0 μM): 39100 pg/mL; Increase rate of IFN-γ expression vs PDL1 treatment ([6]; compound 1.0 μM): 83.6%
Cc1cc(NCc2cccc(-c3ccccc3)c2C)cc(OCc2cccc(C#N)c2)c1CN[C@H](CO)C(=O)O [Compound 6]	0.436 µM	–	–	–	–
Cc1cc(CN[C@H](CO)C(=O)O)c(OCc2cccc(C#N)c2)cc1NCc1cccc(-c2ccccc2)c1C [Compound 19]	0.165 µM	–	–	–	–
Cc1c(CN(C)c2ccc(CN[C@H](CO)C(=O)O)c(OCc3cccc(C#N)c3)c2)cccc1-c1ccccc1 [Compound 26]	> 100 µM	–	–	–	–
Cc1c(CNc2ccc(CNC(CO)CO)c(OCc3cccc(C#N)c3)c2)cccc1-c1ccccc1 [Compound 3]	2.6 µM	–	–	–	–
COc1cc(NCc2cccc(-c3ccccc3)c2C)cc(OCc2cccc(C#N)c2)c1CN[C@H](CO)C(=O)O [Compound 8]	0.672 µM	> 100 µM	> 100 µM	> 100 µM	–
Cc1cc(CN[C@@H](CO)CC(=O)O)c(OCc2cncc(C#N)c2)cc1NCc1cccc(-c2ccccc2)c1C [Compound 18]	0.023 µM	–	–	–	–
Cc1c(C#N)cncc1COc1cc(OCc2cccc(-c3ccccc3)c2C)ccc1CNC(CO)C(=O)O (centres unmarked) [Compound 38, reference compound]	–	26.6 µM	32.1 µM	28.8 µM	IFN-γ ([6]; compound 0.1 μM): 23300 pg/mL; Increase rate of IFN-γ expression vs PDL1 treatment ([6]; compound 0.1 μM): 9.4%; IFN-γ ([6]; compound 1.0 μM): 22600 pg/mL; Increase rate of IFN-γ expression vs PDL1 treatment ([6]; compound 1.0 μM): 6.1%
